Experiments:
[1] = Reduction of copper levels in swine after oral Cu loading; assay type: in vivo; conditions: 15 mg/kg twice daily for three days
Description: Eight weanling pigs weighing 10-12 kg were randomly assigned to one of three groups, receiving no thpalanine (N=2), thpalanine via gavage (N=3) or thpalanine intravenously (N=3). All eight pigs underwent 21 consecutive days of oral Cu loading with 10 mg of Cu from copper sulfate per kg of body weight twice daily. Loading was determined by protocol in Mineral Tolerance of Domestic Animals. Pigs also received 10 mg/kg body weight of Cu in their diet. After 21 days dosing with copper sulfate was discontinued. Thpalanine was given to the two drug-treated groups beginning two days following the end of Cu loading. Each of the thpalanine treatment groups (oral and intravenous) received 15 mg thpalanine per kg body weight twice daily for three consecutive days. Four 24 hour urine collections were done to determine urinary Cu excretion beginning 24 hours prior to thpalanine treatment.
Following day 3 of treatment, the pigs were euthanized and a sample of liver/kidney were collected and stored at −10° F. until copper analyses. Statistical analysis was performed using ANOVA. Multiple pairwise comparisons were made using the Tukey test and statistical significance was set at P<0.05.

[2] = Stability of THPAL in bovine serum albumin (BSA) solution by 31P NMR; assay type: physicochemical
Description: 50 mg of BSA (3.3%) was dissolved in 1.5 ml of water. 30 mg of THPAL (0.06 M) was added to this to obtain a clear solution. The measurements of stable (or unoxidized) forms of THPAL in BSA were performed using ^31P NMR spectroscopy. The ^31P NMR resonance of THPAL is very sensitive to alterations on the back bone structure. The temperature of the mixture of THPAL and BSA in water was maintained at 9-12° C.
There was no detectable change in the ^31P NMR resonance until 12-15 hours after mixing the THPAL and BSA. After 24 hours, about 20% THPAL was transferred to uncharacterized compound.

[3] = Attempted oxidation of THPAL with molecular oxygen; assay type: physicochemical; conditions: aerated water, refluxed for several hours under air
Description: THPAL (0.5 g, […]) was dissolved in aerated water (25 ml).

[4] = Oxidation of THPAL using gaseous hydrogen peroxide; assay type: physicochemical; conditions: aqueous solution exposed to hydrogen peroxide vapors; after two days
[5] = Oxidation of THPAL by 35% aqueous H2O2; assay type: physicochemical
Description: Hydrogen peroxide (0.2 ml, 35%, […]) was added dropwise to a solution of THPAL (0.5 g, 0.014 mmol) in water at room temperature. The reaction mixture was stirred at room temperature for one hour. The solvent was then removed under reduced pressure. The crude product was washed with methanol (5×4 ml), and then characterized as pure O═P(CH2NHCH(CH3)—COOH)3 by NMR spectroscopy. ^31P{^1H} NMR (D2O): 37.07 (s); ^1H NMR (D2O): 1.60 (d, CH3, 9H), 3.96-3.89 (m. CH2 and CH, 9H); ^13C NMR (D2O): 42.9 (d, P—CH2, JC-P=70.05 Hz), 59.6 (d, NH—CH, ^2JC-P=8.25 Hz), 15.59 (s, CH3), 175.15 (s, COOH).

[6] = Oxygen radical absorbance capacity (ORAC hydro FL); conditions: Fluorescein probe; Trolox calibration standard
Description: (§1) The NORAC value of 18.8 μmolTE/g found for TBPAL (Table 1) is among the highest ever reported for antioxidant drugs.
Trolox, a water-soluble Vitamin E analog, was used as the calibration standard and the ORAC result is expressed as micromole Trolox equivalent (TE) per gram.

[7] = Hydroxyl radical absorbance capacity (HORAC); conditions: Gallic Acid calibration standard
Description: as §1
^+Gallic Acid was used as the calibration standard and the HORAC result is expressed as mg Gallic Acid equivalent (GAE) per gram.

[8] = Nitricoxide radical absorbance capacity (NORAC)
Description: as §1
^Trolox was used as the calibration standard and the NORAC result is expressed as μmole Trolox equivalent (TE) per gram.

## CC(NCP(CNC(C)C(=O)O)CNC(C)C(=O)O)C(=O)O (centres unmarked) [THPAL, 2-[({Bis-[(1-carboxy-ethylamino)-methyl]-phosphanyl}-methyl)-amino]-propionic acid]
[1]; Cu-loaded weanling pigs, intravenous
  copper levels in swine kidneys: significantly reduced
[1]; pigs, oral or intravenous
  adverse effects (clinical observations, rate of gain, gross necropsy): no adverse effects
[2]; 3.3% BSA in water, 0.06 M THPAL, 9-12° C.
  time with no detectable change in the 31P NMR resonance after mixing THPAL and BSA: 12 to 15 h
[2]; BSA solution, after 24 hours, 9-12° C.
  THPAL transferred to uncharacterized compound: about 20%
[2]; after 72 hours
  oxidation state of THPAL in BSA solution (31P NMR): remained unoxidized
[2]; after five days
  oxidative stability of THPAL in BSA solution (31P NMR): no oxidation
[2]; overall conclusion
  stability in BSA solutions: stable
[3]
  oxidation or decomposition by 31P NMR: did not show any oxidation or detectable decomposition
[4]
  conversion to O═P(CH2NHCH(CH3)COOH)3: Complete conversion
[5]
  oxidation of THPAL to the corresponding oxide by oxygen radicals generated by peroxide: complete oxidation
[6]
  ORAChydroFL: 31 μmoleTE/g
[7]
  HORAC: Not Detectable
[8]
  NORAC value: 18.8 μmolTE/g
[8]; Trolox calibration standard
  NORAC: 18.81 μmoleTE/g

Reference: US7611691B2, “Compounds for treatment of copper overload” (The Curators of the University of Missouri, priority 2002, dated 2009)
